Reference: PMC4900588, “Amphipathic β^2,2-Amino Acid Derivatives Suppress Infectivity and Disrupt the Intracellular Replication Cycle of Chlamydia pneumoniae” (PLoS ONE, 2016)
Values joined by “and” are separate entries in the source; they are usually repeats but may differ in a detail not shown here. Equal entries are not always repeated. Where two headings read alike, the source gives them in different places.

Tests used:
C. pneumoniae strain K7 = experiment: C. pneumoniae inclusion count inhibition in infected HL cells (immunofluorescence); assay type: cell-based, Chlamydia pneumoniae; conditions: for inhibition at 5 µM / reduction in inclusion counts / inhibition against C. pneumoniae: added at 2 hpi, 72 h, 5 μM; for inhibition at 5 µM / IC50 / reduction in inclusion counts / inhibition against C. pneumoniae: strain K7, HL cells; for inhibition at 5 µM: read-out: reduction in inclusion counts / inhibition against C. pneumoniae; for IC50: read-out: IC50 (inclusion counts, dose-response); for concentration that inhibits infectivity and interferes with inclusions: human epithelial HL cells
Protocol: Human epithelial HL cells were grown in a RPMI1640 medium supplemented with 7.5% fetal bovine serum (FBS), 2 mM L-glutamine and 20 μg/ml gentamicin sulfate. A clinical C. pneumoniae isolate Kajaani 7 (K7), originally isolated from a young person suffering from pneumonia was obtained from Professor Pekka Saikku (Department of Medicinal Microbiology, Institute of Diagnostics, University of Oulu, Finland) and a cardiovascular C. pneumoniae isolate CV-6 was obtained from Professor Matthias Maass (Paracelsus Medical University, Salzburg, Austria). The reference strains CWL-029 (VR-1310) and AR-39 (ATCC 53592) were obtained from American Type Culture Collection (ATCC). All strains were propagated in HL cells as previously described. The K7 strain was used in all studies whereas CV-6 and the ATCC reference strains were used to confirm our initial compound screening data.
(§1) For all experiments applying immunofluorescence, HL cells were seeded in 24-well plates with coverslips at density of 4 x 10^5 cells/well and incubated overnight before infection. The cells were inoculated with C. pneumoniae at multiplicity of infection (MOI) 0.2 in the cell growth media supplemented with 1 μg/ml cycloheximide to enhance chlamydial growth. The inoculated cultures were centrifuged at 550 g at 4°C for 1 h and incubated at 37°C for 1 h. Inocula were removed, fresh medium was added into wells and the plates were incubated for 70 h. Afterwards the cultures were fixed with methanol and the coverslips were stained with Pathfinder Chlamydia cell culture confirmation system (Bio-Rad) based on a genus-specific anti-LPS antibody to visualize the host cells and chlamydial inclusions. Detailed protocols for the infection and staining can be found in [29]. Unless otherwise stated in the text, the derivatives were added into the culture medium at 2 hours post infection (hpi), i.e., at the time when inocula were removed. […] DMSO concentration was adjusted to 0.1% in all experiments.
All experiments were carried out as four replicates in minimum and the inclusion counts were determined as mean ± SEM of 4 eye fields per coverslip. For statistical analysis GraphPad Prism software v. 5.0 and Student’s t-test (p < 0.05) were applied.

HL cells = experiment: Resazurin cell viability assay; assay type: cell-based, human; conditions: 5 μM, 72 h
Protocol: (§2) HL cells were seeded into 96-well plates at density […] and incubated overnight before starting the exposure. The β^2,2-amino acid derivatives were added at concentrations of 5 μM either in the presence or absence of 1 μg/ml cycloheximide in a final volume of 200 μl and the plates were incubated for 72 h. The resazurin assay was performed as described in Karlsson et al..

C. pneumoniae [1] = experiment: Delayed administration assay; assay type: cell-based, Chlamydia pneumoniae; conditions: for reduction in inclusion vacuole counts: 3 μM, added at 6 hpi or later; for inhibition at 3 µM: Chlamydia pneumoniae, added at 2 hpi, read-out: inhibition of inclusion vacuole counts
Protocol: as §1
HL cells were infected as described above and treated with derivatives at concentrations of 3 μM in order to cause inhibition of infection above 50%. The treatment of the infected cells was delayed by 4, 10 and 22 h and inclusions counts were subsequently performed as described above.

C. pneumoniae [2] = experiment: Infectious progeny assay; assay type: cell-based, Chlamydia pneumoniae; conditions: for inclusion vacuole counts in the second passage of infection vs untreated control: 5 μM; for suppression of infectious progeny production: administered at 6 hpi or later (data not shown)
Protocol: To measure the effects of the β^2,2-amino acid derivatives on production of new infectious progeny by C. pneumoniae, HL cells were infected with C. pneumoniae as described above in the presence of the derivatives (at a concentration of 5 μM). At 72 hpi, medium was removed from the wells and 200 μl fresh medium was added. The cells were scraped off and then further lysed by vortexing with glass beads, and the lysates were used to infect fresh HL cell monolayers. Inclusion counts in the second passage of infection were determined with immunofluorescent staining as described above, and control wells fixed and stained after the first infectious cycle were used as internal controls.

C. pneumoniae EBs = experiment: Elementary body infectivity assay; assay type: cell-based; conditions: Chlamydia pneumoniae; EBs treated with 5 μM for 1 h before inoculation of HL cells; read-out: inhibition of EB infectivity
Protocol: C. pneumoniae EBs were suspended into the HL cell growth medium supplemented with cycloheximide at 400 000 inclusion forming units (IFU)/ml and exposed to 5 μM of the derivatives A1—A6 for 1 h at 4°C. Immediately afterwards, aliquots of the EBs suspensions were used to infect HL cell monolayers as described above (MOI 0.2), resulting in typically 40–60 inclusions per eye field in nontreated control infections.

[3] = test system: C. pneumoniae inclusions in HL cells; assay type: cell-based, Chlamydia pneumoniae; conditions: 2.5 μM added at 2 hpi
Protocol: HL cells were seeded in 6-well plates at 2 x 10^6 cells per well and cultured overnight. The cell monolayers were infected with C. pneumoniae (MOI 1) and treated with 2.5 μM of derivative A2 by adding it to the culture medium at 2 hpi based on findings in the dose-response assay. Untreated and uninfected HL control cells were incubated concurrently. The cells were pre-fixed at 24, 48 and 72 hpi with Karnovsky's fixative at 4°C, overnight. The samples were further processed for TEM as described in [30].

[4] = Resazurin cell viability assay; assay type: cell-based, human; conditions: human, HL cells
Protocol: as §2

NCCNC(=O)C(CN)(Cc1ccc(C(F)(F)F)cc1)Cc1ccc(C(F)(F)F)cc1 [A1]
inhibition at 5 µM (C. pneumoniae strain K7; Chlamydia pneumoniae): 95.6% | IC50 (C. pneumoniae strain K7; Chlamydia pneumoniae): 2 µM and 1.4 µg/mL | concentration that inhibits infectivity and interferes with inclusions (C. pneumoniae strain K7): below 5 μM | effect on host HL cell viability (in words) (HL cells): no substantial effect on host HL cell viability | reduction in inclusion vacuole counts (C. pneumoniae [1]): 10–20% | inhibition at 3 µM (C. pneumoniae [1]): ~70% | inclusion vacuole counts in the second passage of infection vs untreated control (C. pneumoniae [2]): significantly lower | suppression of infectious progeny production (C. pneumoniae [2]): neither A1 nor A2 suppressed C. pneumoniae infectious progeny production | inhibition at 5 µM (C. pneumoniae EBs): ≤ 50%

NCCNC(=O)C(CN)(Cc1ccc2ccccc2c1)Cc1ccc2ccccc2c1 [A2]
inhibition at 5 µM (C. pneumoniae strain K7; Chlamydia pneumoniae): 100% | IC50 (C. pneumoniae strain K7; Chlamydia pneumoniae): 2 µM and 1.3 µg/mL | concentration that inhibits infectivity and interferes with inclusions (C. pneumoniae strain K7): below 5 μM | effect on host HL cell viability (in words) (HL cells): no substantial effect on host HL cell viability | reduction in inclusion vacuole counts (C. pneumoniae [1]): 20–30% | inhibition at 3 µM (C. pneumoniae [1]): ~80% | inclusion vacuole counts in the second passage of infection vs untreated control (C. pneumoniae [2]): significantly lower | suppression of infectious progeny production (C. pneumoniae [2]): neither A1 nor A2 suppressed C. pneumoniae infectious progeny production | inhibition at 5 µM (C. pneumoniae EBs): ≤ 50% | TEM finding in infected HL cells ([3]; 24 hpi): affected inclusion vacuoles were visible | TEM finding in infected HL cells ([3]; 48 hpi): smaller inclusions, which only contained fragments of RBs and EBs | TEM finding in infected HL cells ([3]; 72 hpi): no RBs or EBs were present

CC(C)(C)c1ccc(CC(CN)(Cc2ccc(C(C)(C)C)cc2)C(=O)NCCN)cc1 [A3]
reduction in inclusion counts / inhibition against C. pneumoniae (C. pneumoniae strain K7): full inhibition | viability at 72 h, 5 µM [4]: 30.6% | inhibition at 5 µM (C. pneumoniae EBs): 77%

CN(C)CCOC(=O)C(CN)(Cc1ccc(C(F)(F)F)cc1)Cc1ccc(C(F)(F)F)cc1 [A4]
inhibition at 5 µM (C. pneumoniae strain K7; Chlamydia pneumoniae): 23.2% | effect on host HL cell viability (in words) (HL cells): no cytotoxic effects | inhibition at 5 µM (C. pneumoniae EBs): 20%

CN(C)CCOC(=O)C(CN)(Cc1ccc2ccccc2c1)Cc1ccc2ccccc2c1 [A5]
inhibition at 5 µM (C. pneumoniae strain K7; Chlamydia pneumoniae): 89.8% | reduction of HL cell viability (HL cells): 35.6% | inhibition at 5 µM (C. pneumoniae EBs): 66%

CN(C)CCOC(=O)C(CN)(Cc1ccc(C(C)(C)C)cc1)Cc1ccc(C(C)(C)C)cc1 [A6]
reduction in inclusion counts / inhibition against C. pneumoniae (C. pneumoniae strain K7): full inhibition | viability at 72 h, 5 µM [4]: 18.4% | inhibition at 5 µM (C. pneumoniae EBs): 90%

CO[C@H]1/C=C/O[C@@]2(C)Oc3c(C)c(O)c4c(O)c(c(/C=N/N5CCN(C)CC5)c(O)c4c3C2=O)NC(=O)/C(C)=C\C=C\[C@H](C)[C@H](O)[C@@H](C)[C@@H](O)[C@@H](C)[C@H](OC(C)=O)[C@@H]1C [Rifampicin, reference compound]
inhibition at 0.012 µM (C. pneumoniae strain K7; Chlamydia pneumoniae, K7, positive control, 12 nM, read-out: inhibition in C. pneumoniae inclusion counts): 95 to 98%

CC[C@H]1OC(=O)[C@H](C)[C@@H](O[C@H]2C[C@@](C)(OC)[C@@H](O)[C@H](C)O2)[C@H](C)[C@@H](O[C@@H]2O[C@H](C)C[C@H](N(C)C)[C@H]2O)[C@](C)(O)C[C@@H](C)CN(C)[C@H](C)[C@@H](O)[C@]1(C)O [azithromycin, reference compound]
inhibition at 0.02 µM (C. pneumoniae strain K7; Chlamydia pneumoniae, K7, positive control, 20 nM, read-out: inhibition in C. pneumoniae inclusion counts): 95 to 98%
